Source: PMC10838953

What was measured:
[1] = target: ABL1(M351T)-phosphorylated (Homo sapiens, UniProt P00519, M351T); test: biochemical; conditions: read-out: %Ctrl @ 2000nM
IGF1R = IGF1R (Homo sapiens, UniProt P08069); test: biochemical; conditions: read-out: %Ctrl @ 2000nM
IRAK4 = IRAK4 (Homo sapiens, UniProt Q9NWZ3); test: biochemical; conditions: read-out: %Ctrl @ 2000nM
[2] = target: RPS6KA4(Kin.Dom.1-N-terminal) (Homo sapiens, UniProt O75676); test: biochemical; conditions: read-out: %Ctrl @ 2000nM
CSF1R = CSF1R (Homo sapiens, UniProt P07333); test: biochemical; conditions: read-out: %Ctrl @ 2000nM
DCAMKL2 = DCAMKL2 (Homo sapiens, UniProt Q8N568); test: biochemical; conditions: read-out: %Ctrl @ 2000nM
VPS34 = VPS34 (Homo sapiens, UniProt Q8NEB9); test: biochemical; conditions: read-out: %Ctrl @ 2000nM
GSK3B = GSK3B (Homo sapiens, UniProt P49841); test: biochemical; conditions: read-out: %Ctrl @ 2000nM
CDK11 = CDK11 (Homo sapiens, UniProt Q9BWU1); test: biochemical; conditions: read-out: %Ctrl @ 2000nM
FGFR4 = FGFR4 (Homo sapiens, UniProt P22455); test: biochemical; conditions: read-out: %Ctrl @ 2000nM
DMPK = DMPK (Homo sapiens, UniProt Q09013); test: biochemical; conditions: read-out: %Ctrl @ 2000nM
DAPK1 = DAPK1 (Homo sapiens, UniProt P53355); test: biochemical; conditions: read-out: %Ctrl @ 2000nM
DAPK1, sequence (P53355 whole entry): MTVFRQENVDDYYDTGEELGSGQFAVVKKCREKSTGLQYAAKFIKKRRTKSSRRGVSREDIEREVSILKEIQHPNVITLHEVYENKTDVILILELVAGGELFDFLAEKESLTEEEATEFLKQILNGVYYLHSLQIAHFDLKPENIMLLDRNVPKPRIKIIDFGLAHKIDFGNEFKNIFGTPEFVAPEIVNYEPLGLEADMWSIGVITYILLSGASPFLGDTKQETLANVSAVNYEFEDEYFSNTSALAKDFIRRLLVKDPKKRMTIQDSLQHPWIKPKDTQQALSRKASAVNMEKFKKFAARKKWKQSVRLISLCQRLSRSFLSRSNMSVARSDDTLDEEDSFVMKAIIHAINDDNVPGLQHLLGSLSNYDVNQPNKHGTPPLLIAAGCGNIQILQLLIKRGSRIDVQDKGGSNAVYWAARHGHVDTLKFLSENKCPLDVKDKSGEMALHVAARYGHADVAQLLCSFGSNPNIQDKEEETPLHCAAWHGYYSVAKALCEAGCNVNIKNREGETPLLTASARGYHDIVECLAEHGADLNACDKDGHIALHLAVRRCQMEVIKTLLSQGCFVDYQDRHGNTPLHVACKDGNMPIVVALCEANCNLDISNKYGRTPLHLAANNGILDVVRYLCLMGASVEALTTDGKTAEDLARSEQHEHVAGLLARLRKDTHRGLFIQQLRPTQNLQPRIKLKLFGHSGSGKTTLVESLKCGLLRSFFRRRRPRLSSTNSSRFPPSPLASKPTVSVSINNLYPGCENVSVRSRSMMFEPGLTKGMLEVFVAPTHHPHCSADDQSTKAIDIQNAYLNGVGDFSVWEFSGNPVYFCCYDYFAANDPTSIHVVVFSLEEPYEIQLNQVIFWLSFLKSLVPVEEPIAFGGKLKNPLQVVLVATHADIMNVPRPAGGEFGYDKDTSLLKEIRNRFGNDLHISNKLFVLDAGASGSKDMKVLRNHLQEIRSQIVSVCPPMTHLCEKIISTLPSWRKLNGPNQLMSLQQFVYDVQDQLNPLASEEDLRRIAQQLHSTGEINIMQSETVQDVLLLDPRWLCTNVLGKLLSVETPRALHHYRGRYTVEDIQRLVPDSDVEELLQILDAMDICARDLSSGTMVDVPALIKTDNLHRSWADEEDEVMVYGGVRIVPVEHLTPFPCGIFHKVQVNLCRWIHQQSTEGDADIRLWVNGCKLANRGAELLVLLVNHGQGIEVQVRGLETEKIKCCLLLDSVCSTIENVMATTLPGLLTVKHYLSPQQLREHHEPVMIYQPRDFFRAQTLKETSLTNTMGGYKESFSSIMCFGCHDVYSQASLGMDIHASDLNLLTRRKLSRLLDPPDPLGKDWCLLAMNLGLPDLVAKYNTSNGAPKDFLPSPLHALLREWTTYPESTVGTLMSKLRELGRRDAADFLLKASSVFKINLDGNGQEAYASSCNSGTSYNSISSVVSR

BRK = BRK (Homo sapiens, UniProt Q13882); test: biochemical; conditions: read-out: %Ctrl @ 2000nM
DAPK3 = DAPK3 (Homo sapiens, UniProt O43293); test: biochemical; conditions: read-out: %Ctrl @ 2000nM
PFCDPK1(P.falciparum) = PFCDPK1(P.falciparum) (Plasmodium falciparum, UniProt P62344); test: biochemical; conditions: read-out: %Ctrl @ 2000nM
ROCK2 = ROCK2 (Homo sapiens, UniProt O75116); test: biochemical; conditions: read-out: %Ctrl @ 2000nM
ARK5 = ARK5 (Homo sapiens, UniProt O60285); test: biochemical; conditions: read-out: %Ctrl @ 2000nM
FGFR3 = FGFR3 (Homo sapiens, UniProt P22607); test: biochemical; conditions: read-out: %Ctrl @ 2000nM
GRK2 = GRK2 (Homo sapiens, UniProt P25098); test: biochemical; conditions: read-out: %Ctrl @ 2000nM
[3] = target: JAK2(JH1domain-catalytic) (Homo sapiens, UniProt O60674); test: biochemical; conditions: read-out: %Ctrl @ 2000nM
PRKCD = PRKCD (Homo sapiens, UniProt Q05655); test: biochemical; conditions: read-out: %Ctrl @ 2000nM
MELK = MELK (Homo sapiens, UniProt Q14680); test: biochemical; conditions: read-out: %Ctrl @ 2000nM
CDK5 = CDK5 (Homo sapiens, UniProt Q00535); test: biochemical; conditions: read-out: %Ctrl @ 2000nM
SNRK = SNRK (Homo sapiens, UniProt Q9NRH2); test: biochemical; conditions: read-out: %Ctrl @ 2000nM
CHEK2 = CHEK2 (Homo sapiens, UniProt O96017); test: biochemical; conditions: read-out: %Ctrl @ 2000nM
MAK = MAK (Homo sapiens, UniProt P20794); test: biochemical; conditions: read-out: %Ctrl @ 2000nM
TSSK3 = TSSK3 (Homo sapiens, UniProt Q96PN8); test: biochemical; conditions: read-out: %Ctrl @ 2000nM
ALK(L1196M) = ALK(L1196M) (Homo sapiens, UniProt Q9UM73, L1196M); test: biochemical; conditions: read-out: %Ctrl @ 2000nM
CDK4-cyclinD3 = CDK4-cyclinD3 (Homo sapiens, UniProt P11802); test: biochemical; conditions: read-out: %Ctrl @ 2000nM
ALK = ALK (Homo sapiens, UniProt Q9UM73); test: biochemical; conditions: read-out: %Ctrl @ 2000nM
TESK1 = TESK1 (Homo sapiens, UniProt Q15569); test: biochemical; conditions: read-out: %Ctrl @ 2000nM
MARK2 = MARK2 (Homo sapiens, UniProt Q7KZI7); test: biochemical; conditions: read-out: %Ctrl @ 2000nM
MARK2, sequence (Q7KZI7 whole entry): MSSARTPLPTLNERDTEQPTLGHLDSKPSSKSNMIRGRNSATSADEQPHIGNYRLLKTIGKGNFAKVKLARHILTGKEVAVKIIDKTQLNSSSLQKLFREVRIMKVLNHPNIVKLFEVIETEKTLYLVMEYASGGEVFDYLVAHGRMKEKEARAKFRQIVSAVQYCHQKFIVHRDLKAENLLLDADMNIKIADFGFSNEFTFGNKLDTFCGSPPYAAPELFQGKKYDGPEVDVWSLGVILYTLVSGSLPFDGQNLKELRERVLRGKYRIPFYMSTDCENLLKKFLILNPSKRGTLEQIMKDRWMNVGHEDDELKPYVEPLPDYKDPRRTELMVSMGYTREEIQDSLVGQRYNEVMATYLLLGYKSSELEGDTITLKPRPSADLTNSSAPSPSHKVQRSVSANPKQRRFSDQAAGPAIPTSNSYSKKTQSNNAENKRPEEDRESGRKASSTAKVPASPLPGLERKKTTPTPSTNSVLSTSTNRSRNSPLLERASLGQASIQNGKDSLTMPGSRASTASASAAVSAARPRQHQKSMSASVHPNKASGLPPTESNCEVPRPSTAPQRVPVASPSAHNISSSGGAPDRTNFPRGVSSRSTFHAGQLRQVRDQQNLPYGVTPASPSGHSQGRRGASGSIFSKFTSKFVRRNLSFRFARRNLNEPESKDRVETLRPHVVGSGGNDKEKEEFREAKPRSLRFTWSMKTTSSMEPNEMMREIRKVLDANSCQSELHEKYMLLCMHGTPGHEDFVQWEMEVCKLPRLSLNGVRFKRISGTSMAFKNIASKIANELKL

ASK2 = ASK2 (Homo sapiens, UniProt O95382); test: biochemical; conditions: read-out: %Ctrl @ 2000nM
ASK2, sequence (O95382 whole entry): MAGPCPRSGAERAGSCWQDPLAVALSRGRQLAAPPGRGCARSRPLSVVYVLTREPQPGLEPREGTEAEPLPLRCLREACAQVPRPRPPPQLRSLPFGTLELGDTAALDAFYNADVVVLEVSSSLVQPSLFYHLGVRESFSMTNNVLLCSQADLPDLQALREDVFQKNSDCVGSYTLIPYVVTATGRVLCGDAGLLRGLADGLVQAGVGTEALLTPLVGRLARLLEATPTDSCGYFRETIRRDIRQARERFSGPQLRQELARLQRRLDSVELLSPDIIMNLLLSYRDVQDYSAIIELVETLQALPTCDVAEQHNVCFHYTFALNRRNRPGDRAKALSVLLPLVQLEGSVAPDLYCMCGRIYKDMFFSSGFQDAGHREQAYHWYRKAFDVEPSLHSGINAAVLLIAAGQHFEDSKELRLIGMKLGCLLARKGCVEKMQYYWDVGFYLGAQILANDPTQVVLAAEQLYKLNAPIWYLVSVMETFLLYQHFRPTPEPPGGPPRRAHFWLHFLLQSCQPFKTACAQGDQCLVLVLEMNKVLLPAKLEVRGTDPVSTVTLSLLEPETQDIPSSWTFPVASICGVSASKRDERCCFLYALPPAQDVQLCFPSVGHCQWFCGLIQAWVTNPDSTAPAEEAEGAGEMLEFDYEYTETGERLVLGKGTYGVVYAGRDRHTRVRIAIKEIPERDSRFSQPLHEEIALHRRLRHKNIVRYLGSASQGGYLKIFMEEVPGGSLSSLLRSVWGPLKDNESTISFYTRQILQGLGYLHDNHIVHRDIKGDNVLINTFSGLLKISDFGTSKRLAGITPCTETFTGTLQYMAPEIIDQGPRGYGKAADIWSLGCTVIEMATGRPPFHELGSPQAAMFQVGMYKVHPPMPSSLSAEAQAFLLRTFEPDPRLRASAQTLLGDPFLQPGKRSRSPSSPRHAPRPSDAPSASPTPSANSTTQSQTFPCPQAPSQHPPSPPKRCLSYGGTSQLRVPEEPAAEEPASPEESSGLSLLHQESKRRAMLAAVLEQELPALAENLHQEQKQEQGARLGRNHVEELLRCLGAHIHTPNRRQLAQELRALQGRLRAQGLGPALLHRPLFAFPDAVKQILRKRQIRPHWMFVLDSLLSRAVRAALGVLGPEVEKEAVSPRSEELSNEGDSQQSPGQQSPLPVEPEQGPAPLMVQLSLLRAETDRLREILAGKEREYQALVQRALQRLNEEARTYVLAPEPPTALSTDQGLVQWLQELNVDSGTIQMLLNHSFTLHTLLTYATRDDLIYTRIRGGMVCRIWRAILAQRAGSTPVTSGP

p38-beta = p38-beta (Homo sapiens, UniProt Q15759); test: biochemical; conditions: read-out: %Ctrl @ 2000nM
ERK2 = ERK2 (Homo sapiens, UniProt P28482); test: biochemical; conditions: read-out: %Ctrl @ 2000nM
ERK2, sequence (P28482 whole entry): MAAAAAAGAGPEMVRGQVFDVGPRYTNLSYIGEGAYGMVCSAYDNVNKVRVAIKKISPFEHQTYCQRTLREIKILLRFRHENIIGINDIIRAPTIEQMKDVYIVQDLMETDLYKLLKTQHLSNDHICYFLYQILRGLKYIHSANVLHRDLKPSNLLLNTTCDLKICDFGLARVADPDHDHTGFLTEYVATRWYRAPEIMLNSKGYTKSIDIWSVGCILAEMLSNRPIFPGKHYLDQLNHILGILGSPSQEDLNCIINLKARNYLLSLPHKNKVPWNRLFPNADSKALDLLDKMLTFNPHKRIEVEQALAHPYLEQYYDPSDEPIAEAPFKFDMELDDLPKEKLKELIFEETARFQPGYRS

PKAC-beta = PKAC-beta (Homo sapiens, UniProt P22694); test: biochemical; conditions: read-out: %Ctrl @ 2000nM
[4] = target: JAK3(JH1domain-catalytic) (Homo sapiens, UniProt P52333); test: biochemical; conditions: read-out: %Ctrl @ 2000nM
EPHA5 = EPHA5 (Homo sapiens, UniProt P54756); test: biochemical; conditions: read-out: %Ctrl @ 2000nM
DRAK2 = DRAK2 (Homo sapiens, UniProt O94768); test: biochemical; conditions: read-out: %Ctrl @ 2000nM
DRAK2, sequence (O94768 whole entry): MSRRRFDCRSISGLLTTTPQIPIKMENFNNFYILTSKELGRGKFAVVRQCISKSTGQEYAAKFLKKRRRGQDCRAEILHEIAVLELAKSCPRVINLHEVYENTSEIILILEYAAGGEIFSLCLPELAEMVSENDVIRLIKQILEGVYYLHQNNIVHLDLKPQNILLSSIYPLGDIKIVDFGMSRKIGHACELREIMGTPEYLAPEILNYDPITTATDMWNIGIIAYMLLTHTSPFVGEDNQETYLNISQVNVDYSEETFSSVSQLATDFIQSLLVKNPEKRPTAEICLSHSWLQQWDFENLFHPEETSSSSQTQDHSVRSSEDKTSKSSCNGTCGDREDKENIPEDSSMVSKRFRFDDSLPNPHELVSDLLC

CAMK1 = CAMK1 (Homo sapiens, UniProt Q14012); test: biochemical; conditions: read-out: %Ctrl @ 2000nM
CAMK1, sequence (Q14012 whole entry): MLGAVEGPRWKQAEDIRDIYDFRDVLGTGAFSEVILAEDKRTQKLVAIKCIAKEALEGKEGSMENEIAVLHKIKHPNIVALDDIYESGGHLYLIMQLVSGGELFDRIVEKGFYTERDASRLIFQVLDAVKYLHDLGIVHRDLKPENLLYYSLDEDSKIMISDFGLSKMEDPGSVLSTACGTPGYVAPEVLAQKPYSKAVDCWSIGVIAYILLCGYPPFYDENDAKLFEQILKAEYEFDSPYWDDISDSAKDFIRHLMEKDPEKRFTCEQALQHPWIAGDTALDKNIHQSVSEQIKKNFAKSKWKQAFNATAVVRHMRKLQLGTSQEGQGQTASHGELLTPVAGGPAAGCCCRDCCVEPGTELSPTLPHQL

EPHA4 = EPHA4 (Homo sapiens, UniProt P54764); test: biochemical; conditions: read-out: %Ctrl @ 2000nM

IRAK4, sequence (Q9NWZ3 whole entry): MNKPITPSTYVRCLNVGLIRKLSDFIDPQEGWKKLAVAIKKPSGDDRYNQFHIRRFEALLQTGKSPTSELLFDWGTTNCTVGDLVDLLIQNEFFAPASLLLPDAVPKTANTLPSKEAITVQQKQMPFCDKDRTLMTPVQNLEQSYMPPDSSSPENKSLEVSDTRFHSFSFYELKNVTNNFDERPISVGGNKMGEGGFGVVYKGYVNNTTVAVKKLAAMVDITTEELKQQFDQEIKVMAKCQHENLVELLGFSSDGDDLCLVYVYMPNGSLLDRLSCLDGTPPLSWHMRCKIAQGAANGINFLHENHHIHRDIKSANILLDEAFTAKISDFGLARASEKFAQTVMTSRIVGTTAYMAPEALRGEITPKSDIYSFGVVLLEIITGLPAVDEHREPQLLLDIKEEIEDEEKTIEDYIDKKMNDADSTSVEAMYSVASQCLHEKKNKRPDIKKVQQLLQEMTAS

`CC(C)COC(=O)c1[nH]c2ccc(F)cc2c1-c1cn(CC2CCN(CCNS(=O)(=O)c3ccc(CC(C)C)cc3)CC2)nn1` [AB668, isobutyl 5-fluoro-3-(1-((1-(2-((4-isobutylphenyl)sulfonamido)ethyl)piperidin-4-yl)methyl)-1H-1,2,3-triazol-4-yl)-1H-indole-2-carboxylate] gave a remaining activity at 2 µM [1] of 86%, a remaining activity at 2 µM (IGF1R) of 73% and a remaining activity at 2 µM (IRAK4) of 92%. For the same molecule, the remaining activity at 2 µM [2] was 88%, the remaining activity at 2 µM (CSF1R) was 100% and the remaining activity at 2 µM (DCAMKL2) was 93%. It also gave a remaining activity at 2 µM (VPS34) of 100%, a remaining activity at 2 µM (GSK3B) of 100% and a remaining activity at 2 µM (CDK11) of 76%. For the same molecule, the remaining activity at 2 µM (FGFR4) was 82%, the remaining activity at 2 µM (DMPK) was 90% and the remaining activity at 2 µM (DAPK1) was 100%. The remaining activity at 2 µM (BRK) was 72%, the remaining activity at 2 µM (DAPK3) was 100% and the remaining activity at 2 µM (PFCDPK1(P.falciparum)) was 81%. The remaining activity at 2 µM (ROCK2) was 83%, the “%Ctrl @ 2000nM” value (FLT3(ITD)) was 93% and the remaining activity at 2 µM (ARK5) was 83%. For the same molecule, the remaining activity at 2 µM (FGFR3) was 89%, the remaining activity at 2 µM (GRK2) was 100% and the remaining activity at 2 µM [3] was 85%. The remaining activity at 2 µM (PRKCD) was 91%, the remaining activity at 2 µM (MELK) was 100% and the remaining activity at 2 µM (CDK5) was 99%. The remaining activity at 2 µM (SNRK) was 100%, the remaining activity at 2 µM (CHEK2) was 100% and the remaining activity at 2 µM (MAK) was 96%. For the same molecule, the remaining activity at 2 µM (TSSK3) was 98%, the remaining activity at 2 µM (ALK(L1196M)) was 85% and the remaining activity at 2 µM (CDK4-cyclinD3) was 96%. It also gave a remaining activity at 2 µM (ALK) of 91%, a remaining activity at 2 µM (TESK1) of 95% and a remaining activity at 2 µM (MARK2) of 81%. The remaining activity at 2 µM (ASK2) was 75%, the remaining activity at 2 µM (p38-beta) was 74% and the remaining activity at 2 µM (ERK2) was 100%. The “%Ctrl @ 2000nM” value (FLT3(ITD,F691L)) was 96%, the remaining activity at 2 µM (PKAC-beta) was 78% and the remaining activity at 2 µM [4] was 73%. It also gave a remaining activity at 2 µM (EPHA5) of 100%, a remaining activity at 2 µM (DRAK2) of 100% and a remaining activity at 2 µM (CAMK1) of 77%. For the same molecule, the remaining activity at 2 µM (EPHA4) was 78%.
